Like-named read-outs stand apart in the source and are kept apart here.
Experiments:
U937 = assay: Off-target effect (cell based assay), reported with assay 2; settings: Homo sapiens
Method: (§1) Assay 2: Screening Compounds for Inhibition of TSQ Induced Necroptosis, 96 Well Plate Format.
(§2) Cell Line ID: U937 human histiocytic leukemia cell line.
(§3) Cell Concentration (cells/well): Final cell density is 5000 cells per well.
(§4) Cell growth medium: HT-RPMI+7.4% FBS. Cells are cultured in Corning 150 cm^2 tissue culture flasks with vented caps at 37° C./5% CO2.
(§5) Incubation time (hours): 48 hours following addition of compounds and death stimuli
(§6) Compound concentration: 100 nM
(§7) DMSO final concentration (% v/v): 0.3%.
(§8) Data is loaded into Abase and normalised. 10 points titration curve are fitted with the 4 parameter logistic nonlinear regression model and the IC50 reported reflects the inflection point of the curve for curve fitting.

[1] = test system: U937 human histiocytic leukemia cell line; assay: Assay 2: inhibition of TSQ induced necroptosis, 96 well plate format; settings: read-out: Inhibition of TSQ-induced necroptosis (cell based assay) IC50 (U937, TSQ nM)
Method: as §1, §2, §3, §4, §5, §6, §7
(§9) Compounds that are in the Death Stimulation Cocktail and Their Final Concentrations:
(§10) hTNF-Fc (100 ng/ml)—produced by standard procedures as shown in Bossen et al., J Biol Chem, 2006, 281(20), 13964-13971.
(§11) Compound A (500 nM)—Smac mimetic, Tetralogic
(§12) Q-VD-OPh (10 μM)—MP Biomedicals
as §8

[2] = test system: U937 human histiocytic leukemia cell line; assay: Off-target effect (cell based assay), reported with assay 1; settings: U-937, Table 1, assay 1, read-out: Off-target effect (cell based assay) IC50
Method: (§13) Assay 1: Screening Compounds for Inhibition of TSQ Induced Necroptosis, 96 Well Plate Format.
(§14) Cell Line ID: […] human histiocytic leukemia cell line.
(§15) Cell Concentration (cells/well): 35,000 per well in 120 μL of media, counted and plated immediately prior to addition of inhibitor and death stimuli. Final well volume of 150 μL after addition of compounds and death stimuli
(§16) Cell growth medium: HTRPMI (WEHI Media kitchen, contains L-Glutamine and penicillin, streptomycin)—supplemented with 7.4% v/v FCS (Gibco, Precision Plus. Lot #1221437)
as §5
(§17) Compound Concentrations—Log Titrations:
(§18) DMSO final concentration (% v/v): 1.2% in 10 μM well to 0.2% in the control well.
(§19) Cells treated with PI staining (1 μg/ml) and analysed by flow cytometry

[3] = test system: U937 human histiocytic leukemia cell line; assay: Assay 1: inhibition of TSQ induced necroptosis, 96 well plate format; type: cell-based; settings: U-937, Table 1, assay 1, hTNF-Fc 100 ng/ml, Compound A 500 nM, Q-VD-OPh 10 μM, 48 hours, PI staining, flow cytometry, read-out: Inhibition of TSQ-induced necroptosis (cell based assay) IC50
Method: For in vitro analysis, the necroptosis inhibition may be determined by assays used to measure TSQ-induced necroptosis, as described in the biological tests defined herein.
as §13, §14, §15, §16, §5, §17, §18, §9, §10, §11, §12, §19

[4] = U-937, read-out: Off-target effect (cell based assay) IC50 (U937, μM)
[5] = U-937, Table 2, assay 2, U937, read-out: Off-target effect (cell based assay) IC50 (U937)
[6] = U-937, Table 2, assay 2, U937, 5000 cells per well, hTNF-Fc 100 ng/ml, Compound A 500 nM, Q-VD-OPh 10 μM, 48 hours

SMILES	IC50 [2] [µM]	IC50 (U937; [5]) [µM]	IC50 (U937; [4]) [µM]	IC50 ([1]; U-937, 48 h) [nM]	IC50 [3] [µM]	IC50 [1, 6] [nM]
CNC(=O)c1cc(Nc2ncc(C)c(N(C)c3ccc(NC(=O)Nc4ccc(OC(F)(F)F)cc4)cc3)n2)ccc1C [Compound 6, N,2-dimethyl-5-((5-methyl-4-(methyl(4-(3-(4-(trifluoromethoxy)phenyl)ureido)phenyl)amino)pyrimidin-2-yl)amino)benzamide]			> 1000	29		
Cc1ccc(Nc2nccc(N(C)c3ccc(NC(=O)Nc4ccc(OC(F)(F)F)cc4)cc3)n2)cc1CN1CCN(C)CC1 [Compound 23, 1-(4-(methyl(2-((4-methyl-3-((4-methylpiperazin-1-yl)methyl)phenyl)amino)pyrimidin-4-yl)amino)phenyl)-3-(4-(trifluoromethoxy)phenyl)urea]	6.38				0.202	
Cc1ccc(Nc2ncc(F)c(N(C)c3ccc(NC(=O)Nc4cc(F)cc(C(F)(F)F)c4)cc3)n2)cc1N1CCCC1=O [Compound 24, 1-(4-((5-fluoro-2-((4-methyl-3-(2-oxopyrrolidin-1-yl)phenyl)amino)pyrimidin-4-yl)(methyl)amino)phenyl)-3-(3-fluoro-5-(trifluoromethyl)phenyl)urea]	1.24				0.0089	
CC(=O)Nc1cc(Nc2nccc(N(C)c3ccc(NC(=O)Nc4ccc(OC(F)(F)F)cc4)cc3)n2)ccc1C [Compound 28, N-(2-methyl-5-((4-(methyl(4-(3-(4-(trifluoromethoxy)phenyl)ureido)phenyl)amino)pyrimidin-2-yl)amino)phenyl)acetamide]	0.98				0.093	
CNC(=O)c1cc(Nc2nccc(N(C)c3ccc(NC(=O)Nc4cccc(C#N)c4)cc3)n2)ccc1C [Compound 33, 5-((4-((4-(3-(3-cyanophenyl)ureido)phenyl)(methyl)amino)pyrimidin-2-yl)amino)-N,2-dimethylbenzamide]	4.13				0.164	
Cc1ccc(Nc2nccc(N(C)c3ccc(NC(=O)Nc4cc(F)cc(C(F)(F)F)c4)cc3)n2)cc1N1CCNC1=O [Compound 34, 1-(3-fluoro-5-(trifluoromethyl)phenyl)-3-(4-(methyl(2-((4-methyl-3-(2-oxoimidazolidin-1-yl)phenyl)amino)pyrimidin-4-yl)amino)phenyl)urea]	2.42	0.513			0.023	29
Cc1ccc(Nc2nccc(N(C)c3ccc(NC(=O)Nc4cc(F)cc(C(F)(F)F)c4)cc3)n2)cc1C(=O)OCCO [Compound 36, 2-hydroxyethyl 5-((4-((4-(3-(3-fluoro-5-(trifluoromethyl)phenyl)ureido)phenyl)(methyl)amino)pyrimidin-2-yl)amino)-2-methylbenzoate]		2.42				23
CNC(=O)c1cc(Nc2nccc(N(C)c3ccc(NC(=O)Nc4cc(C(F)(F)F)cc(C(F)(F)F)c4)cc3)n2)ccc1C [Compound 37, 5-((4-((4-(3-(3,5-bis(trifluoromethyl)phenyl)ureido)phenyl)(methyl)amino)pyrimidin-2-yl)amino)-N,2-dimethylbenzamide]		1.09				71
CNC(=O)c1cc(Nc2nccc(N(C)c3ccc(NC(=O)Nc4cccc(CC(F)(F)F)c4)cc3)n2)ccc1C [Compound 38, N,2-dimethyl-5-((4-(methyl(4-(3-(3-(2,2,2-trifluoroethyl)phenyl)ureido)phenyl)amino)pyrimidin-2-yl)amino)benzamide]		0.231				2.3
CNC(=O)c1cc(Nc2nccc(N(C)c3ccc(NC(=O)Nc4cccc(OC(F)(F)F)c4)cc3)n2)ccc1C [Compound 39, N,2-dimethyl-5-((4-(methyl(4-(3-(3-(trifluoromethoxy)phenyl)ureido)phenyl)amino)pyrimidin-2-yl)amino)benzamide]		0.419				3.9
CN(c1ccc(NC(=O)Nc2ccc(OC(F)(F)F)cc2)cc1)c1ccnc(Nc2cccc(N3CC4(CCOCC4)CC3=O)c2)n1 [Compound 40, 1-(4-(methyl(2-((3-(3-oxo-8-oxa-2-azaspiro[4.5]decan-2-yl)phenyl)amino)pyrimidin-4-yl)amino)phenyl)-3-(4-(trifluoromethoxy)phenyl)urea]		> 10				7.5
Cc1ccc(Nc2nccc(N(C)c3ccc(NC(=O)Nc4ccc(OC(F)(F)F)cc4)cc3)n2)cc1N1CC2(CCOCC2)CC1=O [Compound 41, 1-(4-(methyl(2-((4-methyl-3-(3-oxo-8-oxa-2-azaspiro[4.5]decan-2-yl)phenyl)amino)pyrimidin-4-yl)amino)phenyl)-3-(4-(trifluoromethoxy)phenyl)urea]		> 10				14
CN(c1ccc(NC(=O)Nc2ccc(OC(F)(F)F)cc2)cc1)c1ccnc(Nc2cccc(S(N)(=O)=O)c2)n1 [drawing 174, reference compound]			1.5	75		

Further lines, with some results ahead:

IC50 [2] [µM]	IC50 (U937; [5]) [µM]	SMILES	IC50 (U937; [4]) [µM]	IC50 ([1]; U-937, 48 h) [nM]	IC50 [3] [µM]	IC50 [1, 6] [nM]
2.28		Cc1ccc(Nc2nccc(N(C)c3ccc(NC(=O)Nc4cc(F)cc(C(F)(F)F)c4)cc3)n2)cc1C(=O)N1CCOCC1 [Compound 25, 1-(3-fluoro-5-(trifluoromethyl)phenyl)-3-(4-(methyl(2-((4-methyl-3-(morpholine-4-carbonyl)phenyl)amino)pyrimidin-4-yl)amino)phenyl)urea]			0.0092	
2.7		CNC(=O)c1cc(Nc2nccc(N(C)c3ccc(NC(=O)Nc4cc(F)cc(C(F)(F)F)c4)cc3)n2)ccc1N1CCOCC1 [Compound 27, 5-((4-((4-(3-(3-fluoro-5-(trifluoromethyl)phenyl)ureido)phenyl)(methyl)amino)pyrimidin-2-yl)amino)-N-methyl-2-morpholinobenzamide]			0.325	
2.05		CNC(=O)c1cc(Nc2nccc(N(C)c3ccc(NC(=O)Nc4cc(Cl)cc(C(F)(F)F)c4)cc3)n2)ccc1C [Compound 29, 5-((4-((4-(3-(3-chloro-5-(trifluoromethyl)phenyl)ureido)phenyl)(methyl)amino)pyrimidin-2-yl)amino)-N,2-dimethylbenzamide]			0.02	
6.68		CNC(=O)c1cc(Nc2nccc(N(C)c3ccc(NC(=O)Nc4cc(F)cc(C(F)(F)F)c4)cc3)n2)ccc1OC [Compound 30, 5-((4-((4-(3-(3-fluoro-5-(trifluoromethyl)phenyl)ureido)phenyl)(methyl)amino)pyrimidin-2-yl)amino)-2-methoxy-N-methylbenzamide]			0.058	
	0.841	CNC(=O)c1cc(Nc2nccc(N(C)c3ccc(NC(=O)Nc4cc(F)cc(C(F)(F)F)c4)cc3)n2)ccc1CN1CCN(C)CC1 [Compound 35, 5-((4-((4-(3-(3-fluoro-5-(trifluoromethyl)phenyl)ureido)phenyl)(methyl)amino)pyrimidin-2-yl)amino)-N-methyl-2-((4-methylpiperazin-1-yl)methyl)benzamide]				45
	> 10	CNC(=O)c1cc(Nc2nccc(N(C)c3ccc(NC(=O)Nc4cc(C#N)cc(C(F)(F)F)c4)cc3)n2)ccc1C [Compound 42]				49

Reference: US20180057465A1, “Inhibitors of Necroptosis” (Catalyst Therapeutics Pty Ltd, priority 2015, published 2018)
